Data published in patent US20210244712A1, “METHODS FOR TREATING PATIENTS WITH CANCER HAVING DEFECTS IN CYCLIN D REGULATION” (NysnoBio Ireland DAC, priority 2018, published 2021).

Columns and labels:
cyclin D1 [1] = assay: Western blot of Cyclin D1, Example 6B; assay type: cell-based; conditions: 250 nM, 24 h, compared to control (DMSO)
Method: Cells were plated at a density of 3×10^5 cells/well for 24 hrs. Representative compounds or DMSO alone was then added to the wells for 24 h at 250 nM (note: Compound F was administered at a concentration of 2 μM). Cells were trypsinised, pelleted, washed ×3 in PBS, and lysed using a 2% SDS lysis solution (Sigma—05030).
Western blot analysis was then carried out to look at Cyclin D1 (Abeam—ab134175), PRK8 (Sigma—P6248), Rb (Abeam—[…]) and GAPDH (Sigma—G9545) levels.

cyclin D1 [2] = assay: Western blot of Cyclin D1 in Mino cells, Example 6C; assay type: cell-based; conditions: compared to control (DMSO)
Method: Mino cells have a chromosomal translocation of the Cyclin D gene that increases expression of cyclin D1. Western blot analysis was then carried out to look at Cyclin D1 (Abeam—ab134175) and GAPDH (Sigma—G9545) levels after treatment with Compounds F, S3, 42, and 146.

HCT-116 xenograft = assay: Subcutaneous HCT-116 xenograft model, tumor volume; assay type: in vivo, nude mice; conditions: Groups 2-6 of Table 8 (Compound 42 1 and 5, Q3 5 and 15, F 25 mg/kg); IP daily for 20 days; 28 days; vs control
Method: The efficacy of Compound 42, Compound F, and Compound Q3 were evaluated in the treatment of subcutaneous HCT-116 xenograft model in nude mice.
Cell Culture: HCT-116 tumor cell lines were maintained in vitro as a monolayer culture in DMEM medium supplemented with 10% fetal bovine serum at 37° C. in an atmosphere of 5% CO2 in air. The tumor cells were routinely subcultured twice weekly by trypsin-EDTA treatment (0.05% Trypsin-EDTA) and 1:4 split: The cells in an exponential growth phase were harvested and counted for tumor inoculation.
Tumor Inoculation: Each, mouse was inoculated subcutaneously at the flank region with HCT-1.16 cells (1.0×106) in 0.1 ml of 1×PBS mixed with Matrigel (1:1) for tumor development. The day Xenotransplantation was performed is denoted as day 0.
Thirty (30) animals with approx 100-150 mm^3 tumors were selected for HCT-116 follow up experiment and randomly placed Into Groups 1, 2, […], 4, 5, and 6 as shown in Table 8.
Group Assignment: Before grouping and treatment, all animals were weighed and fee tumor volumes were confirmed (100-150 mm^3) using electronic caliper. Since the tumor volume can affect fee effectiveness of any given treatment mice into groups using randomized block design as following: First the experimental animals were divided into homogeneous blocks based on their tumor volume. Secondly, within each block, randomization of experimental animals to different groups By using randomized block design to assign experimental animals, we ensure that each animal has the same probability of being assigned to any given treatment groups and therefore systematic error is minimized.
(§1) Treatments were initiated when turner volume reached 100-150 mm^3. Treatments started on Day 5. Test compounds were administered intraperitoneally (II′) in 10 mg/mL solution comprising 10% N,N-dimethyl acetamide, 15% macrogol 15 hydroxy stearate, polyethylene glycol-15-hydroxystearate, and 75% aqueous hydroxypropyl-beta-cyclodextrin.
(§2) Observation and data collection: After tumor cells inoculation, the animals were checked daily for morbidity and mortality. At the time of routine monitoring, the animals were checked for any adverse effects of tumor growth and treatments on normal behavior such as mobility, visual estimation of food and water consumption, body weight gain/loss, eye/hair matting and any other abnormal effects, Death and observed clinical signs were recorded, per […] IACUC. Tumor volumes were measured every 3-4 days in two dimensions using an electronic caliper, sad the volume data are expressed in, mm3 using the formula: V=0.5 a×b^2 where a and b are fee long and short diameters of the tumor, respectively. Dosing and tumor volume measurement procedures were conducted in a Laminar Flow Cabinet according to Altogen Labs IACUC regulations.
Statistics: Summary statistics, the mean and the standard error of the mean (SEM), are provided for the tumor volume of each group at each time point. Statistical analysis of difference in tumor volume among the groups and the analysis of drug interaction were conducted on the data obtained after the final dose.

[3] = HCT-116 xenograft model, body weight and adverse events; assay type: in vivo; conditions: Groups 2-6 of Table 8; IP daily for 20 days
Method: as §1, §2
Body weight loss daring fee study: Sacrifice fee mouse when one measurement of body weight loss (BWL)>20% (only for control animals). Animal research associated wife this study was conducted under Altogen Labs IACUC regulatory space. Altogen Labs IACUC guidelines were followed in case of BWL and any other conditions.

ubiquitinated proteins = assay: Mechanistic study: Ub (FK-2) western blot; assay type: cell-based; conditions: ES-2; epoxomicin 60 nM; 18 hours
Method: In order to establish that the decrease in Cyclin D seen after Compound 42 treatment is due to proteasomal degradation, ES-2, ovarian cancer cell line was treated with Compound 42 (250 nM) in the presence or absence of epoxomicin, a specific inhibitor of the proteasome (60 nM) for 18 hours. Following the treatment, western blotting for Cyclin D (FIG. 10A), Ub (FK-2) (FIG. 10B), and GAPDH control (bottom blot, below FIGS. 10A and 10B) was performed. Epoxomicin is a specific inhibitor of the proteasome.

HCT-116 = assay: Senescence quantification (SA-βGal), Example 6A; assay type: cell-based; conditions: Compound 42 250 nM, Palbociclib 1 μM
Method: Day 1: 96 well plate was seeded with 4000 cells/well and incubated for 24 hours at 37° C. […]
Day 6: Senescence cells histochemical Staining Kit (Sigma) was used. The growth medium form the cells were aspirated then washed twice with fresh […]. […] 100 μL filtered Fixation Buffer was added per well and the plate was incubated for 6-7 minutes at room temperature. Then, the cells were rinsed 3 times with PBS. 50 μL of the Staining Mixture was added per well and incubated at 37° C. overnight without CO2 (staining is pH dependent). After staining, the Staining Mixture was removed, PBS and Hoechst dye (1 μg/mL) were added. Ten images were taken with Epifluorescence Microscope using the blue filter and 10 images were taken in the brightfield. The images were used to count the total cell number—the positive blue cells were counted in the bright field. The percentage of cells expressing β-galactosidase was calculated.
Method 1: Mammalian β-Galactosidase Assay Kit (Thermo Scientific) was used. […] The cells were washed once with PBS. 100 μL of the β-Galactosidase Assay Reagent was added to each well and the plate was covered and incubated for 30 minutes at 37° C. without CO2. The absorbance was measured at 405 nm. […]
Method 2: Assay of a portion of the lysate. […] 25 μL of lysate was removed and use it for Protein Quantification (BCA). […]
Senescence was quantified according to Example 4. […]

Structure (SMILES): Cc1ccccc1C(=O)Nc1nc(-c2ncccc2C)nn1-c1cccc(F)c1 [Compound 146]
- Cyclin D1 expression (cyclin D1 [1]; HCT-116): reduction of Cyclin D1 expression
- Cyclin D1 expression (cyclin D1 [1]; TOV-112): reduction of Cyclin D1 expression
- cyclin D expression (cyclin D1 [2]): appreciably reduce Cyclin D expression

Structure (SMILES): Cc1ccccc1C(=O)Nc1nc(NC(=O)c2ccccc2C)n(-c2ccc(Cl)cc2)n1 [Compound Q3]
- tumor growth (tumor volume) (HCT-116 xenograft): reduce the tumor growth
- weight loss or adverse events [3]: No weight loss or any adverse events

Structure (SMILES): Cc1ccccc1C(=O)Nc1nc(-c2ncccc2C)nn1-c1ccccc1 [Compound S3]
- Cyclin D1 expression (cyclin D1 [1]; HCT-116): reduction of Cyclin D1 expression
- Cyclin D1 expression (cyclin D1 [1]; TOV-112): reduction of Cyclin D1 expression
- cyclin D expression (cyclin D1 [2]): appreciably reduce Cyclin D expression

Structure (SMILES): CC[C@H](C)[C@H](NC(=O)[C@H]([C@@H](C)CC)N(C)C(C)=O)C(=O)N[C@H](C(=O)N[C@@H](CC(C)C)C(=O)[C@@]1(C)CO1)[C@@H](C)O [epoxomicin]
- ubiquitinated proteins (FK-2 antibody) (ubiquitinated proteins): overall increase of ubiquitinated proteins

Structure (SMILES): CC(=O)c1c(C)c2cnc(Nc3ccc(N4CCNCC4)cn3)nc2n(C2CCCC2)c1=O [palbociclib, reference compound]
- apoptosis or other cell death (HCT-116): No apoptosis or other cell death was observed
